Results reported in ChEMBL document CHEMBL3865781, “Recent advances in the discovery and development of antibacterial agents targeting the cell-division protein FtsZ” (Bioorg Med Chem, 2016).
pIC50: −log10 of the molar value. In brackets after ≈: the same amount, converted by molar mass.

What was measured:
[1] = test system: Mycobacterium tuberculosis; experiment: Antibacterial activity against Mycobacterium tuberculosis NHN20 clinical isolates measured every 24 hrs for 7 days by MABA assay; type: functional
[2] = test system: Mycobacterium tuberculosis; experiment: Antibacterial activity against Mycobacterium tuberculosis H37Rv measured every 24 hrs for 7 days by MABA assay; type: functional
[3] = test system: Mycobacterium tuberculosis; experiment: Antibacterial activity against Mycobacterium tuberculosis TN587 clinical isolates measured every 24 hrs for 7 days by MABA assay; type: functional
[4] = test system: Mycobacterium tuberculosis; experiment: Antibacterial activity against Mycobacterium tuberculosis W210 clinical isolates measured every 24 hrs for 7 days by MABA assay; type: functional
[5] = test system: Mycobacterium tuberculosis; experiment: Antibacterial activity against Mycobacterium tuberculosis NHN382 clinical isolates measured every 24 hrs for 7 days by MABA assay; type: functional
[6] = test system: Mycobacterium tuberculosis; experiment: In vivo antibacterial activity against Mycobacterium tuberculosis H37Rv infected in GKO-TB mouse assessed as reduction in bacterial load in lungs at 50 mg/kg, ip or po bid for 10 consecutive days; type: functional
Staphylococcus aureus [7] = experiment: In vivo antibacterial activity against methicillin-resistant Staphylococcus aureus ATCC 33591 infected in ICR(CD-1) mouse thigh infection model assessed as reduction in colony forming units in thigh muscle at 120 to 160 mg/kg, po measured 24 hrs post infection; type: functional
Bacillus subtilis [8] = experiment: Antibacterial activity against Bacillus subtilis; type: functional
Staphylococcus aureus [9] = experiment: Antibacterial activity against methicillin-resistant Staphylococcus aureus; type: functional
[10] = Half life in iv dosed BALB/c mouse administered 1 hr after ABT addition by LC-MS/MS analysis; type: ADME, organism-based; settings: in vivo
Staphylococcus aureus [11] = experiment: Antibacterial activity against multi-drug resistant Staphylococcus aureus; type: functional
[12] = Toxicity in mouse infected with Staphylococcus aureus assessed as survival at 30 mg/kg, iv or po; type: organism-based; settings: in vivo
[13] = test system: Mycobacterium tuberculosis; experiment: In vivo antibacterial activity against Mycobacterium tuberculosis str. Erdman infected in C57BL/6 mouse assessed as reduction in bacterial load in spleens at 50 mg/kg, ip bid on day 5 to 14 post infection measured on day 15 post infection; type: functional, Erdman = ATCC 35801
Staphylococcus aureus [14] = experiment: Antibacterial activity against methicillin-sensitive Staphylococcus aureus after 18 hrs by broth microdilution method; type: functional
Klebsiella pneumoniae = experiment: Antibacterial activity against Klebsiella pneumoniae ATCC BAA-1144 after 18 hrs by broth microdilution method; type: functional; settings: ATCC BAA-1144, 18 h
[15] = molecular target: T1, Cell division protein FtsZ (Escherichia coli K-12, UniProt P0A9A6); experiment: Inhibition of recombinant Escherichia coli K12 FtsZ assembly by light-scattering assay
T1 sequence (P0A9A6 whole entry): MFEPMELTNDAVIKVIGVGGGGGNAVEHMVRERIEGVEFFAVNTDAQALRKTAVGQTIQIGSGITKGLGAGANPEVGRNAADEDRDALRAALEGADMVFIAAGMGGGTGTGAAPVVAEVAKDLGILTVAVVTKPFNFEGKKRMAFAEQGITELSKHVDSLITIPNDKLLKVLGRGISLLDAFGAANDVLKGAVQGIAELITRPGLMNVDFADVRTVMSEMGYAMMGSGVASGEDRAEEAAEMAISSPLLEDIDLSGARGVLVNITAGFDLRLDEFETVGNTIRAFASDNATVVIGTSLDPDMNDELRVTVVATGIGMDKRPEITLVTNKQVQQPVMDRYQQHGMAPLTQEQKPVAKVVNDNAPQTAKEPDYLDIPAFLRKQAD

[16] = molecular target: T1, Cell division protein FtsZ; experiment: Inhibition of recombinant Escherichia coli K12 FtsZ GTPase activity by malachite green sodium molybdate assay
Enterococcus faecalis [17] = experiment: Antimicrobial activity against vancomycin-sensitive Enterococcus faecalis after 18 hrs by broth microdilution method; type: functional
Escherichia coli [18] = experiment: Antibacterial activity against Escherichia coli ATCC 25922 after 18 hrs by broth microdilution method; type: functional; settings: ATCC 25922, 18 h
Staphylococcus aureus [19] = experiment: Antibacterial activity against methicillin-resistant Staphylococcus aureus ATCC BAA-41 after 18 hrs by broth microdilution method; type: functional; settings: ATCC BAA-41, 18 h
Escherichia coli [20] = experiment: Antibacterial activity against Escherichia coli; type: functional
Salmonella typhimurium = experiment: Antibacterial activity against Salmonella typhimurium; type: functional, Salmonella enterica subsp. enterica serovar Typhimurium; settings: Salmonella enterica
Staphylococcus aureus [21] = experiment: Antibacterial against methicillin-resistant Staphylococcus aureus; type: functional
Priestia megaterium = experiment: Antibacterial against Bacillus megaterium; type: functional
[22] = test system: Mycolicibacterium smegmatis; experiment: Antibacterial activity against Mycobacterium smegmatis after 12 hrs by agar dilution assay; type: functional
Bacillus subtilis [23] = experiment: Antibacterial activity against Bacillus subtilis 168 after 12 hrs by agar dilution assay; type: functional; settings: subsp. subtilis str. 168, 12 h
Bacillus subtilis [24] = experiment: Antibacterial activity against Bacillus subtilis after 4 hrs; type: functional
[25] = test system: Mycolicibacterium smegmatis; experiment: Antibacterial activity against Mycobacterium smegmatis after 4 hrs; type: functional
Staphylococcus aureus [26] = experiment: Antibacterial activity against vancomycin-intermediate Staphylococcus aureus isolates after 16 to 24 hrs by microdilution method; type: functional
Staphylococcus aureus [27] = experiment: Antibacterial activity against linezolid-nonsusceptible Staphylococcus aureus isolates after 16 to 24 hrs by microdilution method; type: functional
Staphylococcus aureus [28] = experiment: Antibacterial activity against methicillin-sensitive Staphylococcus aureus after 16 to 24 hrs by microdilution method; type: functional
Staphylococcus aureus [29] = experiment: Antibacterial activity against vancomycin-resistant Staphylococcus aureus isolates after 16 to 24 hrs by microdilution method; type: functional
Staphylococcus aureus [30] = experiment: Antibacterial activity against Daptomycin-nonsusceptible Staphylococcus aureus isolates after 16 to 24 hrs by microdilution method; type: functional
Staphylococcus aureus [31] = experiment: Antibacterial activity against methicillin-resistant Staphylococcus aureus after 16 to 24 hrs by microdilution method; type: functional
[32] = test system: Mycobacterium tuberculosis; experiment: In vivo antibacterial activity against Mycobacterium tuberculosis H37Rv infected in C57BL/6 GKO-mouse assessed as reduction in bacterial load in spleens at 150 mg/kg, ip qd on day 12 post infection for 9 consecutive days; type: functional
[33] = test system: Mycobacterium tuberculosis; experiment: In vivo antibacterial activity against Mycobacterium tuberculosis H37Rv infected in C57BL/6 GKO-mouse assessed as reduction in bacterial load in lungs at 150 mg/kg, ip qd on day 12 post infection for 9 consecutive days; type: functional
Bacillus subtilis [34] = experiment: Antibacterial activity against Bacillus subtilis by broth dilution method; type: functional
Enterococcus faecalis [35] = experiment: Antimicrobial activity against vancomycin-resistant Enterococcus faecalis after 18 hrs by broth microdilution method; type: functional
Staphylococcus aureus [36] = experiment: Antibacterial activity against methicillin-resistant Staphylococcus aureus by broth dilution method; type: functional
Escherichia coli [37] = experiment: Antibacterial activity against Escherichia coli by broth dilution method; type: functional

CN(C)c1cc2[nH]c(C3CCCCC3)nc2cc1NC(=O)c1ccc(OC(F)(F)F)c(F)c1F
MIC99 [1]: 0.39 µg/mL (≈ 0.808 µM) | MIC99 [2]: 0.39 µg/mL (≈ 0.808 µM) | MIC99 [3]: 0.31 µg/mL (≈ 0.643 µM) | MIC99 [4]: 0.47 µg/mL (≈ 0.974 µM) | MIC99 [5]: 0.37 µg/mL (≈ 0.767 µM) | Activity [6]: 2.5 - 3.4 log10CFU

CN1CCC(C(=O)NC(=O)c2c(F)ccc(OCc3nc4cc(C(F)(F)F)cnc4s3)c2F)CC1
Activity (Staphylococcus aureus [7]): 2 log10CFU

NC(=O)c1c(F)ccc(OCc2nc3cc(Cl)cnc3s2)c1F
MIC (Bacillus subtilis [8]): 0.5 to 1 µg/mL (≈ 1.41 to 2.81 µM) | MIC (Staphylococcus aureus [9]): 0.5 to 1 µg/mL (≈ 1.41 to 2.81 µM) | half-life [10]: 0.56 h | MIC (Staphylococcus aureus [11]): 0.5 to 1 µg/mL (≈ 1.41 to 2.81 µM) | survival [12]: 100%

CN(C)c1cc2[nH]c(C3CCCCC3)nc2cc1NC(=O)c1ccc(OC(F)(F)F)cc1
MIC99 [2]: 0.16 µg/mL (≈ 0.358 µM) | MIC99 [3]: 0.16 µg/mL (≈ 0.358 µM) | MIC99 [4]: 0.16 µg/mL (≈ 0.358 µM) | MIC99 [5]: 0.16 µg/mL (≈ 0.358 µM) | Activity [13]: 2.68 log10CFU

COc1ccc2cc3[n+](cc2c1OC)CCc1cc2c(cc1-3)OCO2.[Cl-] [BERBERINE CHLORIDE]
MIC (Staphylococcus aureus [14]): 2 to 8 µg/mL | MIC (Klebsiella pneumoniae): 32 to 128 µg/mL | pIC50 [15]: 5.00 | pIC50 [16]: 4.80 | MIC (Enterococcus faecalis [17]): 4 to 16 µg/mL | MIC (Escherichia coli [18]): 32 to 128 µg/mL | MIC (Staphylococcus aureus [19]): 2 to 8 µg/mL

H-GLLRKGGEKIGEKLKKIGQKIKNFFQKLVPQPEQ-OH
MIC (Escherichia coli [20]): 0.5 to 64 µM | MIC (Salmonella typhimurium): 0.5 to 64 µM | MIC (Staphylococcus aureus [21]): 0.5 to 64 µM | MIC (Priestia megaterium): 0.5 to 64 µM

CC(=O)O[C@@]12CO[C@@H]1C[C@H](O)[C@@]1(C)C(=O)C(=O)C3=C(C)[C@@H](OC(=O)/C=C/c4ccc5ccccc5c4)C[C@@](O)([C@@H](OC(=O)c4ccccc4)[C@H]21)C3(C)C
MIC [22]: 60 µM (≈ 43.4 µg/mL) | MIC (Bacillus subtilis [23]): 30 µM (≈ 21.7 µg/mL)

CCC(C)c1ccc(NC(=O)c2cccc3[nH]c(-c4cccs4)nc23)cc1 (centres undefined)
pIC50 (Bacillus subtilis [24]): 6.00 | pIC50 [25]: 5.80

NC(=O)c1c(F)ccc(OCc2nc3cc(C(F)(F)F)cnc3s2)c1F
MIC (Staphylococcus aureus [26]): 1 µg/mL (≈ 2.57 µM) | MIC (Staphylococcus aureus [27]): 1 µg/mL (≈ 2.57 µM) | half-life [10]: 3.65 h | MIC (Staphylococcus aureus [28]): 1 µg/mL (≈ 2.57 µM) | MIC (Staphylococcus aureus [29]): 1 µg/mL (≈ 2.57 µM) | MIC (Staphylococcus aureus [30]): 1 µg/mL (≈ 2.57 µM) | MIC (Staphylococcus aureus [31]): 1 µg/mL (≈ 2.57 µM)

CCCCOC(=O)Nc1cc2nc(C3CCCCC3)[nH]c2cc1N(CC)CC
Activity [32]: 0.7 log10CFU | MIC99 [2]: 0.63 µg/mL (≈ 1.63 µM) | MIC99 [3]: 1.25 µg/mL (≈ 3.23 µM) | MIC99 [4]: 1.25 µg/mL (≈ 3.23 µM) | MIC99 [5]: 1.25 µg/mL (≈ 3.23 µM) | Activity [33]: 0.41 log10CFU

O=C/C=C/c1ccccc1 [CINNAMALDEHYDE]
MIC (Staphylococcus aureus [14]): 2 to 8 µg/mL (≈ 15.1 to 60.5 µM) | MIC (Bacillus subtilis [34]): 0.5 µg/mL (≈ 3.78 µM) | MIC (Klebsiella pneumoniae): 32 to 128 µg/mL (≈ 242 to 969 µM) | MIC (Enterococcus faecalis [35]): 4 to 16 µg/mL (≈ 30.3 to 121 µM) | MIC (Enterococcus faecalis [17]): 4 to 16 µg/mL (≈ 30.3 to 121 µM) | MIC (Staphylococcus aureus [36]): 0.25 µg/mL (≈ 1.89 µM) | MIC (Escherichia coli [18]): 32 to 128 µg/mL (≈ 242 to 969 µM) | MIC (Escherichia coli [37]): 0.1 µg/mL (≈ 0.757 µM) | MIC (Staphylococcus aureus [19]): 2 to 8 µg/mL (≈ 15.1 to 60.5 µM)
